Legend:
[1] = test system: Male rats; experiment: stress-induced erosion test of Senay and Levine (anti-ulcer activity); assay type: in vivo; settings: dosed orally, cold restraint 3 hours
Protocol: Anti-ulcer activity was determined by the stressinduced erosion test of Senay and Levine, Proc. Soc. Exp. Biol. Med., 124, 1221-3 (1967). The procedure used was as follows.
Male rats, weighing between 80 and 120 gms. were fasted overnight with water ad lib. The rats were then divided into groups of six and dosed orally with the test drug in the form of a solution or with the vehicle alone, 0.5% carboxymethylcellulose, in a volume of 10ml/kg.
After 30 minutes the rats were inserted into aluminium restraining tubes measuring 15/8 inches in diameter by 5 inches and placed in the cold (4±1° C.) for 3 hours. Immediately after cold exposure the rats were killed with intracranial alcohol and their stomachs excised and opened along the greater curvature. Each stomach was washed gently free of contents with warm tap water and pinned out on a board. The condition of the gastric mucosa was then scored from 0 to 6 on the following scale:
The maximum possible score for each animal was 6 and for the group 36. Decrease in ulcer formation was calculated as a percentage of the control score, i.e. [formula] The statistical significance of the effect is assessed by Student's t-test.

[2] = molecular target: T1, H^+ /K^+ ATPase (Oryctolagus cuniculus, UniProt P27112); experiment: 14C-aminopyrine uptake in rabbit isolated gastric glands stimulated by DBcAMP or high K+; assay type: cell-based; settings: at 10^-4 M, read-out: % Inhibition to stimulation by K^+
T1 construct: Rabbit gastric glands are isolated from gastric mucosa from the corpus region of the stomach; from tissue; host or cells: rabbit isolated gastric glands (gastric mucosa, corpus region of the stomach)
T1 sequence (P27112 2-1035 limits assumed): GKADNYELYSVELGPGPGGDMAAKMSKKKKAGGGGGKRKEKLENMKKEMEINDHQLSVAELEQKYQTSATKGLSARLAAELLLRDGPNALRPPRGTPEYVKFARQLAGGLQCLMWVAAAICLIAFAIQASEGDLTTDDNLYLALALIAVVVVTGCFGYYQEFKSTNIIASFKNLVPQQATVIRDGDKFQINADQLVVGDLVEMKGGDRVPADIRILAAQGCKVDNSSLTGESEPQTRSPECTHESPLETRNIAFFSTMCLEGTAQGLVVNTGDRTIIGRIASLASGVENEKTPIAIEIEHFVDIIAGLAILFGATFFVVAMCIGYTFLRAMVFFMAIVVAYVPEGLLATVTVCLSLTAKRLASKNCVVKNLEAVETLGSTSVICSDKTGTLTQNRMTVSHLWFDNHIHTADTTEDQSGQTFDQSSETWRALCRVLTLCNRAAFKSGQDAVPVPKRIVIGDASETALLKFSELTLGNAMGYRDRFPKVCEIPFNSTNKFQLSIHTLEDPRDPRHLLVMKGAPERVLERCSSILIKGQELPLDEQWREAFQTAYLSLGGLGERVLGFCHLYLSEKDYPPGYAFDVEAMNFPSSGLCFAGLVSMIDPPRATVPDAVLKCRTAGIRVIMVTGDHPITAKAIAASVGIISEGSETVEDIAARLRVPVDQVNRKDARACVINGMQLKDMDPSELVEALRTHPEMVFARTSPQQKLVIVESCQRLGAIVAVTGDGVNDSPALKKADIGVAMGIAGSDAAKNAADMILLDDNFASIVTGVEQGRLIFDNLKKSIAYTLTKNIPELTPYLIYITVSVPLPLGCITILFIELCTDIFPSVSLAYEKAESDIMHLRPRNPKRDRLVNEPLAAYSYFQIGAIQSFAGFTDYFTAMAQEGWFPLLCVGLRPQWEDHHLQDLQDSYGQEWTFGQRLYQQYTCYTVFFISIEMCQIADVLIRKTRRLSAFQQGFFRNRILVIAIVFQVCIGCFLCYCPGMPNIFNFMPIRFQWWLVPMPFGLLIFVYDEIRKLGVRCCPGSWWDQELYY
T1 sequence (P18597 whole entry partner): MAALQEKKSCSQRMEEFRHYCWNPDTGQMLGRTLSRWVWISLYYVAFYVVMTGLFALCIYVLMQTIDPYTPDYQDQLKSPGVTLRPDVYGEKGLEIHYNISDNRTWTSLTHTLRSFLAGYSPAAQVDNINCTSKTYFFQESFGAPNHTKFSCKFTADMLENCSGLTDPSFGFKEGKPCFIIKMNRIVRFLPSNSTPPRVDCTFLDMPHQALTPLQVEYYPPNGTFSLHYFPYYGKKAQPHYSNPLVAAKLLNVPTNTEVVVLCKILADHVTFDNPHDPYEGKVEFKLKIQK
Protocol: Compounds of formula I were also tested for anti-secretory activity by their ability to inhibit the highly specific proton transporting enzyme H^+ /K^+ ATPase.
Potential H^+ /K^+ ATPase inhibitors were evaluated by a technique involving the measurement of aminopyrine accumulation in rabbit isolated gastric glands. Aminopyrine accumulates in acid-secreting cells; therefore, uptake of aminopyrine is increased by secretagogues and an inhibitor of acid secretion will reduce the response to one or more secretagogues depending upon its site of action. Compounds which reduce the response to dibutyryl cyclic adenosine monophosphate (DBcAMP) stimulation are assumed to have an intracellular site of action; and those which reduce the response to both DBcAMP and high potassium ion concentration (K^+) are thought to have an intracellular site of action at the secretory surface of the parietal cell, involving the highly specific proton-transporting enzyme, H^+ /K^+ ATPase.
The following test procedure is used: […]
Compounds are tested at a concentration of 10^-4 M, initially, and in some cases at lower concentrations, for their ability to inhibit ^14 C-aminopyrine uptake in gastric glands, stimulated by DBcAMP and high K^+ respectively. Results are expressed as the % inhibition of the maximum response to the secretagogue induced by the test compound. […]

Which “Inhibition (decrease in ulcer formation as percentage of control score)” value ([1]; dose 30 mg/kg) does the source give for `c1ccc(C2Cn3c(nc4ccccc43)S2)nc1` (centres unmarked) [Example 1, 2,3-Dihydro-2-(2-pyridyl)thiazolo[3,2-a]benzimidazole] here?
The value was 86%.

And the “Inhibition (decrease in ulcer formation as percentage of control score)” value ([1]; dose 100 mg/kg)?
The value was 75%.

How did the “Inhibition (decrease in ulcer formation as percentage of control score)” value ([1]; dose 100 mg/kg) turn out when `c1ccc(C2Cn3c(nc4ccccc43)S2)cc1` (centres unmarked) [Example 3, 2,3-Dihydro-2-phenylthiazolo[3,2-a]benzimidazole] was run?
The value was 74%.

With `Cc1cc2nc3n(c2cc1C)CC(c1ccccn1)S3` (centres unmarked) [Example 9, 2,3-Dihydro-6,7-dimethyl-2-(2-pyridyl)thiazolo[3,2-a]benzimidazole] as the compound, how does the “Inhibition (decrease in ulcer formation as percentage of control score)” value ([1]; dose 100 mg/kg) read?
Its value is 82%.

`Clc1cc2nc3n(c2cc1Cl)CC(c1ccccn1)S3` (centres unmarked) [Example 8, 6,7-Dichloro-2,3-dihydro-2-(2-pyridyl)thiazolo[3,2-a]benzimidazole] was tested. Which inhibition at 100 µM [2] did it give?
The inhibition at 100 µM was 74%.

Reference: patent US4873237A, “2,3-dihydro- thiazolo- and thiazino- benzimidazoles as atni-hyper secretion agents” (John Wyeth & Brother Limited, priority 1983, dated 1989)
